Results: patent US7259011B2, “Pluripotent adult stem cells” (priority 2004, dated 2007)
Read-outs that look alike come from different tables or passages of the source.

Test system: PPASCs
Source text: PPASCs were thawed or trypsinized from expansion cultures and plated at 20,000 cells per 16 mm well in 24-well gelatin-coated culture plates (Corning Glass Works, Corning, N.Y.). All wells contained EMEM and 10% pre-selected horse serum. The control group remained in this medium, while the experimental wells contained media supplemented with dexamethasone (Sigma). Dexamethasone used were logarithmic concentrations from 10^−10 to 10^−6 M. Cultures were fixed and assayed for phenotypes at one-week intervals up to five weeks.
The immunohistochemical protocol typically used was adopted from Romero-Ramos et al. (2002)^3:
8) 0.25 ml of the primary antibody in PBS was added for 60 minutes at 37° C. • Antibodies used: Table 2
10) A second blocking step of 1% Goat Serum in PBS with 0.5% Tween was performed for 20 minutes preceding the addition of the secondary antibody. • 11) The cells received 0.25 ml of horse-radish peroxidase conjugated IgG secondary antibody that was diluted with PBS to a concentration of 1:1500 or secondary antibody conjugated with either FITC or TRITC fluorochrome. • 12) After 30 minutes of incubation at 37° C. with the secondary antibody, the wells were rinsed with PBS five times. If the secondary antibody was conjugated to fluorochrome, photographs were taken after this step. • 13) 0.25 ml of True Blue or DAB solution was added and light protected for up to 20 minutes. • 14) Five rinses of dH2O followed. • 15) Photographs were taken on an Olympus Inverted Scope Model IMT light microscope.

C[C@@H]1C[C@H]2[C@@H]3CCC4=CC(=O)C=C[C@]4(C)[C@@]3(F)[C@@H](O)C[C@]2(C)[C@@]1(O)C(=O)CO [dex, dexamethasone]
concentration at which cells containing vesicles (Sudan Black B stained, adipocytes) were observed: 10^−9 to 10^−6 M | concentration at which induction of endothelial cells reproducibly occurred: ≥ 10^−8 M | concentration giving the highest quantity of hepatocytes: 10^−8 M | AFP stained cells (liver; α-fetoprotein) (10^−6 M dex): + (+ = 1–5 cells seen per culture well.) | CIICI stained cells (cartilage; type II collagen) (10^−6 M dex): − (− = no stained cells seen per culture well.) | CNPase stained cells (glial cells) (10^−6 M dex): − (− = no stained cells seen per culture well.) | CT3 stained cells (cardiac muscle; cardiac troponin T) (10^−6 M dex): + (+ = 1–5 cells seen per culture well.) | Desmin stained cells (myogenic precursor cells) (10^−6 M dex): + (+ = 1–5 cells seen per culture well.) | GFAP stained cells (astrocytes) (10^−6 M dex): − (− = no stained cells seen per culture well.) | IA4 stained cells (smooth muscle; α-smooth muscle actin) (10^−6 M dex): + (+ = 1–5 cells seen per culture well.) | IL-1β stained cells (10^−6 M dex): + (+ = 1–5 cells seen per culture well.) | LDL uptake (fluorescent labeled acetylated low density lipoprotein, 20 min) (10^−6 M dex): ++ (++ = 5–10 cells observed per culture well.) | MF-20 stained cells (skeletal muscle; heavy chain of myosin) (10^−6 M dex): − (− = no stained cells seen per culture well.) | MPIII stained cells (bone; osteopontin) (10^−6 M dex): − (− = no stained cells seen per culture well.) | P2B1 stained cells (endothelial cells) (10^−6 M dex): ++ (++ = 5–10 cells observed per culture well.) | P4A4 stained cells (endothelial cells) (10^−6 M dex): + (+ = 1–5 cells seen per culture well.) | Sudan Black B stained cells (fat) (10^−6 M dex): ++ (++ = 5–10 cells observed per culture well.) | Talin stained cells (fibroblasts) (10^−6 M dex): − (− = no stained cells seen per culture well.) | Trop I stained cells (cardiac muscle; cardiac troponin I) (10^−6 M dex): + (+ = 1–5 cells seen per culture well.) | WVIDI stained cells (bone; bone sialoproteins I and II) (10^−6 M dex): − (− = no stained cells seen per culture well.) | AFP stained cells (liver; α-fetoprotein) (10^−7 M dex): ++ (++ = 5–10 cells observed per culture well.) | CIICI stained cells (cartilage; type II collagen) (10^−7 M dex): + (+ = 1–5 cells seen per culture well.) | CNPase stained cells (glial cells) (10^−7 M dex): − (− = no stained cells seen per culture well.) | CT3 stained cells (cardiac muscle; cardiac troponin T) (10^−7 M dex): ++ (++ = 5–10 cells observed per culture well.) | Desmin stained cells (myogenic precursor cells) (10^−7 M dex): + (+ = 1–5 cells seen per culture well.) | GFAP stained cells (astrocytes) (10^−7 M dex): − (− = no stained cells seen per culture well.) | IA4 stained cells (smooth muscle; α-smooth muscle actin) (10^−7 M dex): ++ (++ = 5–10 cells observed per culture well.) | IL-1β stained cells (10^−7 M dex): + (+ = 1–5 cells seen per culture well.) | LDL uptake (fluorescent labeled acetylated low density lipoprotein, 20 min) (10^−7 M dex): ++ (++ = 5–10 cells observed per culture well.) | MF-20 stained cells (skeletal muscle; heavy chain of myosin) (10^−7 M dex): − (− = no stained cells seen per culture well.) | MPIII stained cells (bone; osteopontin) (10^−7 M dex): + (+ = 1–5 cells seen per culture well.) | P2B1 stained cells (endothelial cells) (10^−7 M dex): + (+ = 1–5 cells seen per culture well.) | P4A4 stained cells (endothelial cells) (10^−7 M dex): + (+ = 1–5 cells seen per culture well.) | Sudan Black B stained cells (fat) (10^−7 M dex): ++ (++ = 5–10 cells observed per culture well.) | Talin stained cells (fibroblasts) (10^−7 M dex): ++ (++ = 5–10 cells observed per culture well.) | Trop I stained cells (cardiac muscle; cardiac troponin I) (10^−7 M dex): + (+ = 1–5 cells seen per culture well.) | WVIDI stained cells (bone; bone sialoproteins I and II) (10^−7 M dex): + (+ = 1–5 cells seen per culture well.) | AFP stained cells (liver; α-fetoprotein) (10^−8 M dex): + (+ = 1–5 cells seen per culture well.) | CIICI stained cells (cartilage; type II collagen) (10^−8 M dex): ++ (++ = 5–10 cells observed per culture well.) | CNPase stained cells (glial cells) (10^−8 M dex): + (+ = 1–5 cells seen per culture well.) | CT3 stained cells (cardiac muscle; cardiac troponin T) (10^−8 M dex): + (+ = 1–5 cells seen per culture well.) | Desmin stained cells (myogenic precursor cells) (10^−8 M dex): + (+ = 1–5 cells seen per culture well.) | GFAP stained cells (astrocytes) (10^−8 M dex): − (− = no stained cells seen per culture well.) | IA4 stained cells (smooth muscle; α-smooth muscle actin) (10^−8 M dex): + (+ = 1–5 cells seen per culture well.) | IL-1β stained cells (10^−8 M dex): + (+ = 1–5 cells seen per culture well.) | LDL uptake (fluorescent labeled acetylated low density lipoprotein, 20 min) (10^−8 M dex): + (+ = 1–5 cells seen per culture well.) | MF-20 stained cells (skeletal muscle; heavy chain of myosin) (10^−8 M dex): + (+ = 1–5 cells seen per culture well.) | MPIII stained cells (bone; osteopontin) (10^−8 M dex): + (+ = 1–5 cells seen per culture well.) | P2B1 stained cells (endothelial cells) (10^−8 M dex): − (− = no stained cells seen per culture well.) | P4A4 stained cells (endothelial cells) (10^−8 M dex): + (+ = 1–5 cells seen per culture well.) | Sudan Black B stained cells (fat) (10^−8 M dex): + (+ = 1–5 cells seen per culture well.) | Talin stained cells (fibroblasts) (10^−8 M dex): ++ (++ = 5–10 cells observed per culture well.) | Trop I stained cells (cardiac muscle; cardiac troponin I) (10^−8 M dex): + (+ = 1–5 cells seen per culture well.) | WVIDI stained cells (bone; bone sialoproteins I and II) (10^−8 M dex): + (+ = 1–5 cells seen per culture well.) | AFP stained cells (liver; α-fetoprotein) (10^−9 M dex): + (+ = 1–5 cells seen per culture well.) | CIICI stained cells (cartilage; type II collagen) (10^−9 M dex): + (+ = 1–5 cells seen per culture well.) | CNPase stained cells (glial cells) (10^−9 M dex): ++ (++ = 5–10 cells observed per culture well.) | CT3 stained cells (cardiac muscle; cardiac troponin T) (10^−9 M dex): − (− = no stained cells seen per culture well.) | Desmin stained cells (myogenic precursor cells) (10^−9 M dex): ++ (++ = 5–10 cells observed per culture well.) | GFAP stained cells (astrocytes) (10^−9 M dex): ++ (++ = 5–10 cells observed per culture well.) | IA4 stained cells (smooth muscle; α-smooth muscle actin) (10^−9 M dex): − (− = no stained cells seen per culture well.) | IL-1β stained cells (10^−9 M dex): − (− = no stained cells seen per culture well.) | LDL uptake (fluorescent labeled acetylated low density lipoprotein, 20 min) (10^−9 M dex): − (− = no stained cells seen per culture well.) | MF-20 stained cells (skeletal muscle; heavy chain of myosin) (10^−9 M dex): + (+ = 1–5 cells seen per culture well.) | MPIII stained cells (bone; osteopontin) (10^−9 M dex): + (+ = 1–5 cells seen per culture well.) | P2B1 stained cells (endothelial cells) (10^−9 M dex): − (− = no stained cells seen per culture well.) | P4A4 stained cells (endothelial cells) (10^−9 M dex): − (− = no stained cells seen per culture well.) | Sudan Black B stained cells (fat) (10^−9 M dex): − (− = no stained cells seen per culture well.) | Talin stained cells (fibroblasts) (10^−9 M dex): + (+ = 1–5 cells seen per culture well.) | Trop I stained cells (cardiac muscle; cardiac troponin I) (10^−9 M dex): − (− = no stained cells seen per culture well.) | WVIDI stained cells (bone; bone sialoproteins I and II) (10^−9 M dex): + (+ = 1–5 cells seen per culture well.) | AFP stained cells (liver; α-fetoprotein) (10^−10 M dex): − (− = no stained cells seen per culture well.) | CIICI stained cells (cartilage; type II collagen) (10^−10 M dex): − (− = no stained cells seen per culture well.) | CNPase stained cells (glial cells) (10^−10 M dex): ++ (++ = 5–10 cells observed per culture well.) | CT3 stained cells (cardiac muscle; cardiac troponin T) (10^−10 M dex): − (− = no stained cells seen per culture well.) | Desmin stained cells (myogenic precursor cells) (10^−10 M dex): + (+ = 1–5 cells seen per culture well.) | GFAP stained cells (astrocytes) (10^−10 M dex): + (+ = 1–5 cells seen per culture well.) | IA4 stained cells (smooth muscle; α-smooth muscle actin) (10^−10 M dex): − (− = no stained cells seen per culture well.) | IL-1β stained cells (10^−10 M dex): − (− = no stained cells seen per culture well.) | LDL uptake (fluorescent labeled acetylated low density lipoprotein, 20 min) (10^−10 M dex): − (− = no stained cells seen per culture well.) | MF-20 stained cells (skeletal muscle; heavy chain of myosin) (10^−10 M dex): + (+ = 1–5 cells seen per culture well.) | MPIII stained cells (bone; osteopontin) (10^−10 M dex): + (+ = 1–5 cells seen per culture well.) | P2B1 stained cells (endothelial cells) (10^−10 M dex): − (− = no stained cells seen per culture well.) | P4A4 stained cells (endothelial cells) (10^−10 M dex): − (− = no stained cells seen per culture well.) | Sudan Black B stained cells (fat) (10^−10 M dex): − (− = no stained cells seen per culture well.) | Talin stained cells (fibroblasts) (10^−10 M dex): − (− = no stained cells seen per culture well.) | Trop I stained cells (cardiac muscle; cardiac troponin I) (10^−10 M dex): − (− = no stained cells seen per culture well.) | WVIDI stained cells (bone; bone sialoproteins I and II) (10^−10 M dex): + (+ = 1–5 cells seen per culture well.) | Von Kossa's stain of multilayered nodules (mineral) (after 3 weeks of treatment): mineralized | Alcian blue pH 1.0 staining (cartilage) (pH 1): sulfated proteoglycans were detected
